# Patent US20220056019A1, “FARNESOID X RECEPTOR AGONISTS AND USES THEREOF” (Metacrine, Inc., priority 2018, published 2022)
# Target: T1, hFXR (Homo sapiens, UniProt Q96RI1)
# T1 construct: expressed in transfected cells; host or cells: CV-1 cells
# T1 sequence (Q96RI1 1-486): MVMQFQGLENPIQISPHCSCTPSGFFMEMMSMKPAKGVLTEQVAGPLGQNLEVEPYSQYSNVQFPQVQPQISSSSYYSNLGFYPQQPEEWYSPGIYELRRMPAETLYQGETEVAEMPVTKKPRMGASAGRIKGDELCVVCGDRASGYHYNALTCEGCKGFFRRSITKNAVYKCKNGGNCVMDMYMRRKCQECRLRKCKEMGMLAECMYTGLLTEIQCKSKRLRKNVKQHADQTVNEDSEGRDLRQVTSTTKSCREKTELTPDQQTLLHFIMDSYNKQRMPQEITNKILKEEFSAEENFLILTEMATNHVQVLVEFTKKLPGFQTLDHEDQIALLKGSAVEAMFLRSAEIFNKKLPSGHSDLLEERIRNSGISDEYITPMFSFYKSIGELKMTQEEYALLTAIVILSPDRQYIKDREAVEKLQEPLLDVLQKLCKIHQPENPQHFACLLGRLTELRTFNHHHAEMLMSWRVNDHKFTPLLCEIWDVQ
# T1 sequence (P19793 1-462 partner): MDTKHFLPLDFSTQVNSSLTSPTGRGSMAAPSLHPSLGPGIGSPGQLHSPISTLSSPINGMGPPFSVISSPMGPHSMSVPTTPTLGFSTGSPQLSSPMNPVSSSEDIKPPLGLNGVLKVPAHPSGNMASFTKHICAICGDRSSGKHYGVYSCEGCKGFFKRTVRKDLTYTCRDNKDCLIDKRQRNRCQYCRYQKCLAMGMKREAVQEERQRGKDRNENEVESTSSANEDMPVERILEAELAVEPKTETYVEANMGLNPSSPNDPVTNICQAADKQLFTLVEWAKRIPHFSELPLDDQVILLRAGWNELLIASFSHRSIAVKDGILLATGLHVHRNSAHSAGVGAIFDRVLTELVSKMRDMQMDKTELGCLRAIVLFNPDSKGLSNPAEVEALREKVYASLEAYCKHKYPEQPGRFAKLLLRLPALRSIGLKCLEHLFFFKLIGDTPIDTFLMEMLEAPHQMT
# Test: In Vitro FXR Assay (TK): TK-ECRE-luc reporter in transfected CV-1 cells
# Assay type: cell-based
# Conditions: 18 hrs incubation, luminescence
# Procedure, shortened: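 CV-1 cells transiently cotransfected with hFXR, hRXR, TK-ECRE-luc reporter and pCMX-YFP plasmids in charcoal-stripped serum medium. Serially diluted compounds added for 18 h at 37° C., then cells lysed and luciferase luminescence measured.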
row,EC50 [µM],Compound
1,≤ 0.05,"COc1ccc(C23CCC(CN(c4nccc(-c5cnn(C6(C)CCC6)c5)n4)C(=O)[C@H]4CC[C@H](OC(=O)N5CC(O)C5)CC4)(CC2)CC3)cc1C [Compound 25.25, 4-(((4-(4-Methoxy-3-methylphenyl)bicyclo[2.2.2]octan-1-yl)methyl)(4-(1-(1-methylcyclobutyl)-1H-pyrazol-4-yl)pyrimidin-2-yl)carbamoyl)cyclohexyl trans-3-hydroxyazetidine-1-carboxylate]"
2,≤ 0.05,"COc1ccc(C23CCC(CN(c4cc(-c5cnn(C(C)C)c5)ccn4)C(=O)[C@H]4CC[C@H](OC(=O)N(C)CCO)CC4)(CC2)CC3)cc1C [Compound 4.51, 4-((4-(1-Isopropyl-1H-pyrazol-4-yl)pyridin-2-yl) ((4-(4-methoxy-3-methylphenyl)bicyclo [2.2.2]octan-1-yl)methyl)carbamoyl)cyclohexyl (2-hydroxyethyl)(methyl) trans-carbamate]"
3,≤ 0.05,"CCc1ncc(-c2ccnc(N(CC34CCC(c5ccc(OC)c(C)c5)(CC3)CC4)C(=O)[C@H]3CC[C@H](OC(=O)N4CC(O)C4)CC3)c2)s1 [Compound 4.20, 4-((4-(2-Ethylthiazol-5-yl)pyridin-2-yl)((4-(4-methoxy-3-methylphenyl)bicyclo[2.2.2]octan-1-yl)methyl)carbamoyl) cyclohexyl 3-hydroxyazetidine-trans-1-carboxylate]"
4,≤ 0.05,"CCCC1CN(C(=O)O[C@H]2CC[C@H](C(=O)N(CC34CCC(c5ccc(OC)c(C)c5)(CC3)CC4)c3cc(-c4cnn(C(C)C)c4)ccn3)CC2)C1 [Compound 4.55, 4-((4-(1-Isopropyl-1H-pyrazol-4-yl)pyridin-2-yl) ((4-(4-methoxy-3-methylphenyl)bicyclo [2.2.2]octan-1-yl)methyl)carbamoyl)cyclohexyl trans-3-propylazetidine-1-carboxylate]"
5,≤ 0.05,"COc1ccc(C23CCC(CN(c4cc(-c5cnn(C(C)C)c5)ccn4)C(=O)[C@H]4CC[C@H](OC(=O)N5CC(CS(C)(=O)=O)C5)CC4)(CC2)CC3)cc1C [Compound 4.44, 4-((4-(1-Isopropyl-1H-pyrazol-4-yl)pyridin-2-yl) ((4-(4-methoxy-3-methylphenyl)bicyclo [2.2.2]octan-1-yl)methyl)carbamoyl)cyclohexyl trans-3-((methylsulfonyl)methyl)azetidine-1-carboxylate]"
6,≤ 0.05,"COc1ccc(C23CCC(CN(c4cncc(-c5cnn(C(C)C)c5)n4)C(=O)[C@H]4CC[C@H](OC(=O)N5CC(O)C5)CC4)(CC2)CC3)cc1C [Compound 25.28, 4-((6-(1-Isopropyl-1H-pyrazol-4-yl)pyrazin-2-yl)((4-(4-methoxy-3-methylphenyl)bicyclo[2.2.2]octan-1-yl)methyl)carbamoyl)cyclohexyl trans-3-hydroxyazetidine-1-carboxylate]"
7,0.05 to 1,"COc1ccc(C23CCC(CN(c4cc(-c5cnn(C(C)C)c5)ncn4)C(=O)[C@H]4CC[C@H](OC(=O)N5CC(C#N)C5)CC4)(CC2)CC3)cc1C [Compound 23.22, 4-((6-(1-Isopropyl-1H-pyrazol-4-yl)pyrimidin-4-yl)((4-(4-methoxy-3-methylphenyl)bi-cyclo[2.2.2]octan-1-yl)methyl)carbamoyl(trans-cyclohexyl) 3-cyanoazetidine-1-carboxylate]"
8,≤ 0.05,"COc1ccc([C@H]2CC[C@H](CN(c3cc(-c4cnc(C5CC5)o4)ccn3)C(=O)[C@H]3CC[C@H](OC(=O)N4CC(O)C4)CC3)CC2)cc1C [Compound 2.01, trans-4-((4-(2-Cyclopropyloxazol-5-yl)pyridin-2-yl)((trans-4-(4-methoxy-3-methylphenyl)cyclohexyl)methyl)carbamoyl)cyclohexyl 3-hydroxyazetidine-1-carboxylate]"
9,≤ 0.05,"CC(C)c1ccc(C23CCC(CN(c4cncc(-c5cnn(C(C)C)c5)n4)C(=O)[C@H]4CC[C@H](OC(=O)N5CC(O)C5)CC4)(CC2)CC3)cc1 [Compound 4.63, 4-((6-(1-Isopropyl-1H-pyrazol-4-yl)pyrazin-2-yl) ((4-(4-isopropylphenyl)bicyclo[2.2.2]octan-1-yl)methyl)carbamoyl)(trans-cyclohexyl) 3-hydroxyazetidine-1-carboxylate]"
10,≤ 0.05,"COc1ccc([C@H]2CC[C@H](CN(c3cc(-c4cnc(N(C)C)nc4)ccn3)C(=O)[C@H]3CC[C@H](OC(=O)N4CC(O)C4)CC3)CC2)cc1C [Compound 3.01, trans-4-((4-(2-(Dimethylamino)pyrimidin-5-yl)pyridin-2-yl)((trans-4-(4-methoxy-3-methylphenyl)cyclohexyl)methyl)carbamoyl) cyclohexyl 3-hydroxyazetidine-1-carboxylate]"
11,≤ 0.05,"COc1ccc([C@H]2CC[C@H](CN(c3cccc(-c4cnn(C(C)C)c4)c3)C(=O)[C@H]3CC[C@H](OC(=O)NCCCF)CC3)CC2)cc1C [Compound 5.04, trans-4-((3-(1-Isopropyl-1H-pyrazol-4-yl)phenyl)(((trans)-4-(4-methoxy-3-methylphenyl)cyclohexyl)methyl)carbamoyl)cyclohexyl (3-fluoropropyl)carbamate]"
12,≤ 0.05,"COc1ccc(C23CCC(CN(c4cc(-c5cnc(C(C)C)s5)ccn4)C(=O)[C@H]4CC[C@H](OC(=O)NCCC(C)(C)O)CC4)(CC2)CC3)cc1C [Compound 4.39, 4-((4-(2-Isopropylthiazol-5-yl)pyridin-2-yl)((4-(4-methoxy-3-methylphenyl)bicyclo[2.2.2]octan-1-yl)methyl)carbamoyl)(trans-cyclohexyl) (3-hydroxy-3-methylbutyl)carbamate]"
13,≤ 0.05,"COc1ccc(C23CCC(CN(c4cc(-c5coc(C6CC6)n5)ccn4)C(=O)[C@H]4CC[C@H](NC(=O)CO)CC4)(CC2)CC3)cc1C [Compound 9.11, (trans)-N-(4-(2-Cyclopropyloxazol-4-yl)pyridin-2-yl)-4-(2-hydroxyacetamido)-N-((4-(4-methoxy-3-methylphenyl)bicyclo[2.2.2]octan-1-yl)methyl)cyclohexanecarboxamide]"
14,≤ 0.05,"COc1ccc(C23CCC(CN(c4cc(-c5coc(C6CC6)n5)ccn4)C(=O)[C@H]4CC[C@H](OC(=O)N5CC(CO)C5)CC4)(CC2)CC3)cc1C [Compound 4.31, 4-((4-(2-Cyclopropyloxazol-4-yl)pyridin-2-yl)((4-(4-methoxy-3-methylphenyl)bicyclo[2.2.2]octan-1-yl)methyl)carbamoyl)(trans-cyclohexyl) 3-(hydroxymethyl)azetidine-1-carboxylate]"
15,≤ 0.05,"COc1ccc([C@H]2CC[C@H](CN(c3cccc(-c4cnn(C(C)C)c4)c3)C(=O)[C@H]3CC[C@H](NC(=O)OC(C)C)CC3)CC2)cc1C [Compound 6.02, Isopropyl (trans-4-((3-(1-isopropyl-1H-pyrazol-4-yl)phenyl)((trans-4-(4-methoxy-3-methylphenyl)cyclohexyl)meth-yl)carbamoyl)cyclohexyl)carbamate]"
16,≤ 0.05,"CCC1CN(C(=O)O[C@H]2CC[C@H](C(=O)N(CC34CCC(c5ccc(OC)c(C)c5)(CC3)CC4)c3cc(-c4cnn(C(C)C)c4)ccn3)CC2)C1 [Compound 4.54, 4-((4-(1-Isopropyl-1H-pyrazol-4-yl)pyridin-2-yl) ((4-(4-methoxy-3-methylphenyl)bicyclo [2.2.2]octan-1-yl)methyl)carbamoyl)cyclohexyl trans-3-ethylazetidine-1-carboxylate]"
